Assays:
[1] = biological target: T1, 5-HT4 receptor (Cavia porcellus, UniProt O70528); assay: 5-HT4 Receptor Binding - Guinea Pig Striatum; details: radioligand [3H]GR113808 (0.70 nM)
T1 construct: from tissue; host or cells: guinea pig striatum
Text: The 5-HT4 receptor is known to be the major receptor subtype involved in the prokinetic activity of cisapride in the gut.

[2] = biological target: T2, human IKr (hERG K+ channels) (Homo sapiens, UniProt Q12809); assay: Inhibition of IKr activity, whole cell patch-clamp in HEK-293 cells expressing hERG K+ channels; format: cell-based; details: data normalized to % control tail IKr
T2 construct: expressed in transfected cells; host or cells: HEK-293
Description: The rapidly activating delayed rectifier potassium (K+) current in humans (human IKr) is a K+ channel that is encoded by the human-ether-a-go-go-related gene (hERG). Cisapride is known to produce QT interval prolongations via a blockade of IKr, and it was therefore of interest to determine whether compounds of the invention have important inhibitory effects on human IKr. The test system was mammalian HEK-293 cells expressing the hERG K+ channels, in which the potassium current was measured by whole cell patch-clamp technique.

[3] = between July 1993 and December 1999; cited from earlier work
[4] = in vivo; cited from earlier work

T2 sequence (Q12809 whole entry): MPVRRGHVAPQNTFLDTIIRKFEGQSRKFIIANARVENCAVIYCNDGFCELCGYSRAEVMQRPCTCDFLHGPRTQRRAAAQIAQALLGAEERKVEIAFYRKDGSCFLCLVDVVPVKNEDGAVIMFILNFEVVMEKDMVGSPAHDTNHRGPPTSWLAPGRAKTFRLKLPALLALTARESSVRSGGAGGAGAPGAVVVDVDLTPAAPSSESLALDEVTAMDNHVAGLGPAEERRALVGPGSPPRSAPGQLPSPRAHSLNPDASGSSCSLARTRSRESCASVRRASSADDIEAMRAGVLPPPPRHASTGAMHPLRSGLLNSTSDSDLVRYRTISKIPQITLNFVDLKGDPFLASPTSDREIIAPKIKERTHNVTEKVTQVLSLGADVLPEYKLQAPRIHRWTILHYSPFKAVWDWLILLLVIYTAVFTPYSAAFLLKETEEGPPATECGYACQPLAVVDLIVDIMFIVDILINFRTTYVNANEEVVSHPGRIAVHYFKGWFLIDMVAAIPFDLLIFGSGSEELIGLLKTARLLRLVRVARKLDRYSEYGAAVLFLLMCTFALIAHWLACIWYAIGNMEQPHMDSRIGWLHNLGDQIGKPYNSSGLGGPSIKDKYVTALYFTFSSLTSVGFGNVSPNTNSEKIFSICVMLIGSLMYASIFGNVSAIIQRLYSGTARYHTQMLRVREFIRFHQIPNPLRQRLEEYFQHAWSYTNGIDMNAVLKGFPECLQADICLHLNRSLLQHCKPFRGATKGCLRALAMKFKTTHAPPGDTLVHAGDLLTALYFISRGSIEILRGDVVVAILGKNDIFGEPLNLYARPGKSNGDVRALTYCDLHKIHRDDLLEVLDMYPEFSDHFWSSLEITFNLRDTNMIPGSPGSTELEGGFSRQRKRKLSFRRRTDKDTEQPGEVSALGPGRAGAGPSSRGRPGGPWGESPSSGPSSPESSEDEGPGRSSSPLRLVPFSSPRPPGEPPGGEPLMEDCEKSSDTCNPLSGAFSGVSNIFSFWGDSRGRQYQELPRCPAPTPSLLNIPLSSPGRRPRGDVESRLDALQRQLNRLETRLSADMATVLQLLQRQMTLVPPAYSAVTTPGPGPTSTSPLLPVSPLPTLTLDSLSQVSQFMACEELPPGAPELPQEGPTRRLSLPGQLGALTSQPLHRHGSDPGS
T1 sequence (O70528 whole entry): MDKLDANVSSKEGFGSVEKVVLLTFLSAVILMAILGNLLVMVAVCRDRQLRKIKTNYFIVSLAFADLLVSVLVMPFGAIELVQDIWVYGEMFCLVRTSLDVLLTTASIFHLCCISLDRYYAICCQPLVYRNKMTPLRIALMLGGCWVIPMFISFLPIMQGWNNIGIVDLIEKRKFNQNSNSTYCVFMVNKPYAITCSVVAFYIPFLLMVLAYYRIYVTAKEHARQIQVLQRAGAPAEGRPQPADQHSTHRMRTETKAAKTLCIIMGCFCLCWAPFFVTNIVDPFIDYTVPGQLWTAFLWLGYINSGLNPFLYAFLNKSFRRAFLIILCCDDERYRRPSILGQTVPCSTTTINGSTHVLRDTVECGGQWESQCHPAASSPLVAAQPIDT

Structure (SMILES) | Ki [1] | IC50 [2] | further results
COc1cc(N)c(Cl)cc1C(=O)N[C@@H]1CCN(CC(=O)Nc2ccc(CC(=O)OCCCO)cc2)C[C@@H]1OC [Compound 48, 3-hydroxypropyl 2-(4-(2-((3S,4R)-4-(4-amino-5-chloro-2-methoxybenzamido)-3-methoxypiperidin-1-yl)acetamido)phenyl)acetate] | < 50 nM | 10000 to 25000 nM | –
COc1cc(N)c(Cl)cc1C(=O)N[C@@H]1CCN(CC(=O)Nc2ccc(CC(=O)OC3CN4CCC3CC4)cc2)C[C@@H]1OC (stereo partly drawn) [Compound 49, quinuclidin-3-yl 2-(4-(2-((3S,4R)-4-(4-amino-5-chloro-2-methoxybenzamido)-3-methoxypiperidin-1-yl)acetamido)phenyl)acetate] | < 50 nM | – | –
COc1cc(N)c(Cl)cc1C(=O)N[C@@H]1CCN(CCN(C)Cc2ccc(C(=O)OC3CCN(C)CC3)cc2)C[C@@H]1OC [Compound 11, 1-methylpiperidin-4-yl 4-(((2-((3S,4R)-4-(4-amino-5-chloro-2-methoxybenzamido)-3-methoxypiperidin-1-yl)ethyl)(methyl)amino)methyl)benzoate] | < 50 nM | – | –
COc1cc(N)c(Cl)cc1C(=O)N[C@@H]1CCN(CC(=O)Nc2ccc(O)cc2)C[C@@H]1OC [Compound 59, 4-amino-5-chloro-N-((3S,4R)-1-(2-(4-hydroxyphenylamino)-2-oxoethyl)-3-methoxypiperidin-4-yl)-2-methoxybenzamide] | < 50 nM | – | –
COc1cc(N)c(Cl)cc1C(=O)N[C@@H]1CCN(CCN(C)Cc2ccc(C(=O)OCCN3CCCC3)cc2)C[C@@H]1OC [Compound 10, 2-(pyrrolidin-1-yl)ethyl 4-(((2-((3S,4R)-4-(4-amino-5-chloro-2-methoxybenzamido)-3-methoxypiperidin-1-yl)ethyl)(methyl)amino)methyl)benzoate] | < 50 nM | > 25000 nM | –
CCOC(=O)Cc1ccc(NC(=O)CN2CC[C@@H](NC(=O)c3cc(Cl)c(N)cc3OC)[C@@H](OC)C2)cc1 [Compound 46, ethyl 2-(4-(2-((3S,4R)-4-(4-amino-5-chloro-2-methoxybenzamido)-3-methoxypiperidin-1-yl)acetamido)phenyl)acetate] | < 50 nM | – | –
COc1cc(N)c(Cl)cc1C(=O)N[C@@H]1CCN(CCNCc2ccc(C(=O)O)cc2)C[C@@H]1OC [Compound 23, 4-((2-((3S,4R)-4-(4-amino-5-chloro-2-methoxybenzamido)-3-methoxypiperidin-1-yl)ethylamino)methyl)benzoic acid] | > 500 nM | – | –
COc1cc(N)c(Cl)cc1C(=O)N[C@@H]1CCN(CCNCc2ccc(C(=O)OCCCO)cc2)C[C@@H]1OC [Compound 24, 3-hydroxypropyl 4-((2-((3S,4R)-4-(4-amino-5-chloro-2-methoxybenzamido)-3-methoxypiperidin-1-yl)ethylamino)methyl)benzoate] | 50 to 500 nM | – | –
COc1cc(N)c(Cl)cc1C(=O)N[C@@H]1CCN(CC(=O)Nc2ccc(CC(=O)O)cc2)C[C@@H]1OC [Compound 45, 2-(4-(2-((3S,4R)-4-(4-amino-5-chloro-2-methoxybenzamido)-3-methoxypiperidin-1-yl)acetamido)phenyl)acetic acid] | > 500 nM | > 25000 nM | –
COc1cc(N)c(Cl)cc1C(=O)N[C@@H]1CCN(CCCc2ccc(C(=O)OCCN3CCOCC3)cc2)C[C@@H]1OC [Compound 67, 2-morpholinoethyl 4-(3-((3S,4R)-4-(4-amino-5-chloro-2-methoxybenzamido)-3-methoxypiperidin-1-yl)propyl)benzoate] | < 50 nM | – | –
COc1cc(N)c(Cl)cc1C(=O)NC1CCN(CCCOc2ccc(F)cc2)CC1OC (stereo not shown) [cisapride] | – | – | deaths reported [3]: 80; serious cardiac arrhythmias reportedly associated [3]: at least 341; part of dose metabolized by oxidative N-dealkylation or aromatic hydroxylation [4]: More than 90%
COc1cc(N)c(Cl)cc1C(=O)N[C@@H]1CCN(CCNC(=O)c2ccc(C(=O)O)cc2)C[C@@H]1OC [Compound 33, 4-(2-((3S,4R)-4-(4-amino-5-chloro-2-methoxybenzamido)-3-methoxypiperidin-1-yl)ethylcarbamoyl)benzoic acid] | > 500 nM | > 25000 nM | –
COc1cc(N)c(Cl)cc1C(=O)N[C@@H]1CCN(CCNC(=O)c2ccc(C(=O)OC3CCNCC3)cc2)C[C@@H]1OC [Compound 34, piperidin-4-yl 4-(2-((3S,4R)-4-(4-amino-5-chloro-2-methoxybenzamido)-3-methoxypiperidin-1-yl)ethylcarbamoyl)benzoate] | < 50 nM | – | –
COc1cc(N)c(Cl)cc1C(=O)N[C@@H]1CCN(CCCc2ccc(C(=O)OC3CCN(C)CC3)cc2)C[C@@H]1OC [Compound 69, 1-methylpiperidin-4-yl 4-(3-((3S,4R)-4-(4-amino-5-chloro-2-methoxybenzamido)-3-methoxypiperidin-1-yl)propyl)benzoate] | < 50 nM | – | –
COc1cc(N)c(Cl)cc1C(=O)N[C@@H]1CCN(CCCc2ccc(C(=O)OCCN3CCCC3)cc2)C[C@@H]1OC [Compound 68, 2-(pyrrolidin-1-yl)ethyl 4-(3-((3S,4R)-4-(4-amino-5-chloro-2-methoxybenzamido)-3-methoxypiperidin-1-yl)propyl)benzoate] | < 50 nM | – | –
COc1cc(N)c(Cl)cc1C(=O)N[C@@H]1CCN(CC(=O)Nc2ccc(C(=O)OCCN3CCNCC3)cc2)C[C@@H]1OC [Compound 95, 2-(piperazin-1-yl)ethyl 4-(2-((3S,4R)-4-(4-amino-5-chloro-2-methoxybenzamido)-3-methoxypiperidin-1-yl)acetamido)benzoate] | < 50 nM | – | –
COc1cc(N)c(Cl)cc1C(=O)N[C@@H]1CCN(CC(=O)Nc2ccc(C(=O)OCCO)cc2)C[C@@H]1OC [Compound 93, 2-hydroxyethyl 4-(2-((3S,4R)-4-(4-amino-5-chloro-2-methoxybenzamido)-3-methoxypiperidin-1-yl)acetamido)benzoate] | < 50 nM | > 25000 nM | –
COc1cc(N)c(Cl)cc1C(=O)N[C@@H]1CCN(CCN(C)Cc2ccc(C(=O)OCCN3CCOCC3)cc2)C[C@@H]1OC [Compound 12, 2-morpholinoethyl 4-(((2-((3S,4R)-4-(4-amino-5-chloro-2-methoxybenzamido)-3-methoxypiperidin-1-yl)ethyl)(methyl)amino)methyl)benzoate] | 50 to 500 nM | – | –
COc1cc(N)c(Cl)cc1C(=O)N[C@@H]1CCN(CC(=O)Nc2ccc(C(=O)OCC(N)=O)cc2)C[C@@H]1OC [Compound 94, 2-amino-2-oxoethyl 4-(2-((3S,4R)-4-(4-amino-5-chloro-2-methoxybenzamido)-3-methoxypiperidin-1-yl)acetamido)benzoate] | < 50 nM | 5000 to 10000 nM | –
COc1cc(N)c(Cl)cc1C(=O)N[C@@H]1CCN(CC(=O)Nc2ccc(OC(C)=O)cc2)C[C@@H]1OC [Compound 60, 4-(2-((3S,4R)-4-(4-amino-5-chloro-2-methoxybenzamido)-3-methoxypiperidin-1-yl)acetamido)phenyl acetate] | < 50 nM | – | –
COc1cc(N)c(Cl)cc1C(=O)N[C@@H]1CCN(CCNCc2ccc(C(=O)OC3CCNCC3)cc2)C[C@@H]1OC [Compound 25, piperidin-4-yl 4-((2-((3S,4R)-4-(4-amino-5-chloro-2-methoxybenzamido)-3-methoxypiperidin-1-yl)ethylamino)methyl)benzoate] | < 50 nM | > 25000 nM | –
COc1cc(N)c(Cl)cc1C(=O)N[C@@H]1CCN(CCCc2ccc(C(=O)O)cc2)C[C@@H]1OC [Compound 66, 4-(3-((3S,4R)-4-(4-amino-5-chloro-2-methoxybenzamido)-3-methoxypiperidin-1-yl)propyl)benzoic acid] | > 500 nM | > 25000 nM | –
COc1cc(N)c(Cl)cc1C(=O)N[C@@H]1CCN(CC(=O)Nc2ccc(CC(=O)OC3CCN(C)CC3)cc2)C[C@@H]1OC [Compound 47, 1-methylpiperidin-4-yl 2-(4-(2-((3S,4R)-4-(4-amino-5-chloro-2-methoxybenzamido)-3-methoxypiperidin-1-yl)acetamido)phenyl)acetate] | < 50 nM | > 25000 nM | –

Reference: patent publication US20080085915A1, “COMPOUNDS AND METHODS FOR THE TREATMENT OF GASTROINTESTINAL AND CENTRAL NERVOUS SYSTEM DISORDERS” (priority 2006, published 2008)
